pEC50: −log10 of the molar value. Where two headings read alike, the source gives them in different places.
Legend:
female zebrafish = test: In vivo zebrafish kinetics of BPZ (water exposure, organ concentrations by LC-MS/MS); set-up: species or system zebrafish (Danio rerio); conditions: 17 μg/L in water, observed
Procedure: (§1) At sampling, adult fish were euthanized by immersion in a sodium bicarbonate-buffered tricaine methanesulfonate solution (MS222: 500 mg/L) and decapitated thereafter. […] Additionally, three whole fish were sampled at timepoints of 6, 12, and 24 h of the exposure phase. Water from the fish tank was sampled at 0, 12, 24, 48, 72, 168, 336, 411, and 480 h after exposure start as well as at 0, 12, 24, and 96 h after the start of depuration. Control fish and tank water were sampled before the start of exposure. All samples were immediately stored at −20 °C until further analysis. […]
(§2) 1223. In Vivo Zebrafish Kinetics of BPZ
(§3) 123Adult zebrafish were purchased from a local supplier in Uppsala, Sweden, and acclimatized for
(§4) 1246 weeks before the start of the study. The zebrafish were kept in 26 °C charcoal filtered tap
(§5) 173NH 4OH and 4 ml acetonitrile/tetrahydofuran (1:1) mixture. The 4 ml 2% formic acid in
(§6) 174methanol eluates were evaporated until dry. Remaining residues were then reconstituted in 50
(§7) 175µl water and methanol 50/50 v/v mixture. Extracts were stored at 4°C until measurement.
(§8) 176The extracts were measured on a LC (ExionLC, Sciex) coupled with a Turbo V Ion source (ESI)
(§9) 178Sciex). Separation of compound was done on a phenyl-hexyl column (Kinetex, 100 x 2.1 mm,
(§10) 1791.7 µm, Phenomenex) set at 45°C using a gradient of 0.2 mM NH 4F and 0.2 mM NH4F in
(§11) 180acetonitrile. The applied MRM transitions and MS/MS settings are described in Tables S5-S8.
(§12) LC column Kinetex Phenyl-hexyl column, 1.7 µm, 2,1 mm X 100
(§13) Delay column Isolator column, 2.1 mm X 100 mm (Waters)
(§14) Gradient 0.2 mM NH4F 0.2 mM NH4F in
(§15) 194limit of detection (LOD). The LOD is defined as three times the standard deviation of the blank
(§16) 195plus the average blank value. The limit of quantification (LOQ) is defined as 3.3 * LOD value
(§17) Blank pg/extract Recovery % Repeatability %
(§18) Detection and report limits (calculated on based of average sample intake)

[1] = as above; set-up: species or system zebrafish (Danio rerio); conditions: female, zebrafish; for concentration at 12 h / concentration at 483 h / concentration at 486 h / concentration at 492 h / concentration at 504 h / concentration at 576 h / concentration at 6 h / concentration at 24 h / concentration at 48 h / concentration at 72 h / concentration at 336 h / concentration at 411 h / concentration at 480 h: female zebrafish; for concentration at 483 h: 483 h (depuration phase); for concentration at 486 h: 486 h (depuration phase); for concentration at 492 h: 492 h (depuration phase); for concentration at 504 h: 504 h (depuration phase); for concentration at 576 h: 576 h (depuration phase); for concentration at 480 h: 480 h (one outlier fish removed); for Cmax / half-life: 17 μg/L in water, observed
Procedure: as §1, §2, §3, §4, §5, §6, §7, §8, §9, §10, §11, §12, §13, §14, §15, §16, §17, §18

zebrafish = test: PBTK parameter fitting (Nelder–Mead algorithm) to in vivo zebrafish data; set-up: species or system zebrafish (Danio rerio); conditions: fitted on brain BPZ concentrations of current study; used for all bisphenols
From the text: Ovaries and eggs were assumed to receive the same blood flow. The equation for the egg compartment was described as follows using the diffusion-limited equation previously described by Thompson and Beard[51] [drawing 4] 4 where dAegg/dt represents the rate of change of bisphenol over time in the egg compartment, Agon and Aegg represent the amount of compound in the gonads and egg, respectively, Vgon and Vegg are the volumes of the gonads and eggs, respectively, and Pgon and Pegg are the partition coefficients of the gonads to blood and egg to gonads.
Parameter fitting was done in R using the modFit function in the FME package with the Nelder–Mead algorithm.[53]
279For fitting, the model was run using the exposure scenarios of each fitting data set.
280parameters were fixed as presented in Tables S10-S14 with exception of the parameter for
281which fitting was performed. The outcome evaluated by fitting algorithm was the concentration
282over time in the same tissue as the experimental data. Outcomes used for fitting to measured
283experimental data were: concentration in brain for brain-blood partition coefficient,
284concentration in liver for liver-blood partition coefficient, concentration in eggs for egg-gonad
285partition coefficient and whole-body metabolite concentration for Ke bile and KBG of metabolites.
286For the liver, brain and egg partitioning, the range was set between 0.01 and 500 and the Nelder-
287Mead algorithm was run with initial estimates at 1, 5, 10, 50 and 500 in order to assure a global
288minimum was found. The fitted values returning the lowest squared sum of residuals were used
The GI lumen to GI tract diffusion rate (K u)

Estrogen receptor (ER) = biological target: Estrogen receptor (ER); set-up: method as in Kitamura et al. 2005; conditions: ERE-luciferase reporter assay, MCF-7 cells; ref Kitamura et al. 2005; cited from earlier work
[2] = brain, other: exposure via tank water, 10 μg/L (nominal water concentration), read-out: Mean concentration, brain
[3] = brain, other: water exposure, 10 µg/L, read-out: Mean concentration, brain
[4] = carcass, other: exposure via tank water, 10 μg/L (nominal water concentration), read-out: Mean concentration, carcass
[5] = carcass, other: water exposure, 10 µg/L, read-out: Mean concentration, carcass
[6] = liver, other: exposure via tank water, 10 μg/L (nominal water concentration), read-out: Mean concentration, liver
[7] = liver, other: water exposure, 10 µg/L, read-out: Mean concentration, liver
[8] = ovary, other: exposure via tank water, 10 μg/L (nominal water concentration), read-out: Mean concentration, ovary
[9] = ovary, other: water exposure, 10 µg/L, read-out: Mean concentration, ovary
[10] = whole body (calculated), other: water exposure, 10 µg/L, read-out: Mean concentration, whole body (calculated)
[11] = whole body, other: exposure via tank water, 10 μg/L (nominal water concentration), read-out: Mean concentration, whole body (calculated)
[12] = whole body, other: water exposure, 10 µg/L, read-out: Mean concentration, whole body (measured)
[13] = 17 μg/L (water concentration), brain
[14] = 17 μg/L (water concentration), carcass

## Oc1ccc(C2(c3ccc(O)cc3)CCCCC2)cc1 [BPZ, bisphenol Z]
Female zebrafish; brain
  AUC: 2.85 µg/g/day
  BCF: 10.0
Female zebrafish; carcass
  AUC: 12.5 µg/g/day
  BCF: 65.9
Female zebrafish; liver
  AUC: 7.07 µg/g/day
  BCF: 59.2
Female zebrafish; ovaries
  AUC: 4.70 µg/g/day
  BCF: 15.8
Female zebrafish; whole body
  AUC: 10.6 µg/g/day
  BCF: 52.9
[1]; [2]
  concentration at 12 h: 82.1 ng/g
  concentration at 483 h: 14.4 ng/g
  concentration at 486 h: 7.9 ng/g
  concentration at 492 h: < 2.5 ng/g
  concentration at 504 h: < 3 ng/g
  concentration at 576 h: < 2.5 ng/g
[1]; [3]
  concentration at 6 h: 72 ng/g
  concentration at 24 h: 116 ng/g
  concentration at 48 h: 64.4 ng/g
  concentration at 72 h: 170 ng/g
  concentration at 336 h: 156 ng/g
  concentration at 411 h: 150 ng/g
  concentration at 480 h: 61.4 ng/g
[1]; [4]
  concentration at 480 h: 249 ng/g
  concentration at 483 h: 133 ng/g
  concentration at 486 h: 24.3 ng/g
  concentration at 492 h: 18.9 ng/g
  concentration at 504 h: 8.3 ng/g
  concentration at 576 h: 1.6 ng/g
[1]; [5]
  concentration at 6 h: 160 ng/g
  concentration at 12 h: 261 ng/g
  concentration at 24 h: 671 ng/g
  concentration at 48 h: 612 ng/g
  concentration at 72 h: 1120 ng/g
  concentration at 336 h: 348 ng/g
  concentration at 411 h: 557 ng/g
[1]; [6]
  concentration at 12 h: 57.5 ng/g
  concentration at 483 h: 252 ng/g
  concentration at 486 h: 71.3 ng/g
  concentration at 492 h: 11 ng/g
  concentration at 504 h: 12.4 ng/g
  concentration at 576 h: 4.4 ng/g
[1]; [7]
  concentration at 6 h: 182 ng/g
  concentration at 24 h: 364 ng/g
  concentration at 48 h: 225 ng/g
  concentration at 72 h: 536 ng/g
  concentration at 336 h: 146 ng/g
  concentration at 411 h: 232 ng/g
  concentration at 480 h: 1010 ng/g
[1]; [8]
  concentration at 12 h: 113 ng/g
  concentration at 480 h: 69.3 ng/g
  concentration at 483 h: 108 ng/g
  concentration at 486 h: 108 ng/g
  concentration at 492 h: 84.5 ng/g
  concentration at 504 h: 48.3 ng/g
  concentration at 576 h: 1 ng/g
[1]; [9]
  concentration at 6 h: 85.3 ng/g
  concentration at 24 h: 146 ng/g
  concentration at 48 h: 146 ng/g
  concentration at 72 h: 259 ng/g
  concentration at 336 h: 269 ng/g
  concentration at 411 h: 214 ng/g
[1]; [10]
  concentration at 12 h: 203 ng/g
  concentration at 24 h: 530 ng/g
  concentration at 48 h: 500 ng/g
  concentration at 72 h: 900 ng/g
  concentration at 336 h: 296 ng/g
  concentration at 411 h: 472 ng/g
[1]; [11]
  concentration at 6 h: 130 ng/g
  concentration at 480 h: 449 ng/g
  concentration at 483 h: 128 ng/g
  concentration at 486 h: 35.1 ng/g
  concentration at 492 h: 28.2 ng/g
  concentration at 504 h: 14.5 ng/g
  concentration at 576 h: 1.5 ng/g
[1]; whole body, other: exposure via tank water, 10 μg/L (nominal water concentration), read-out: Mean concentration, whole body (measured)
  concentration at 6 h: 215 ng/g
[1]; [12]
  concentration at 12 h: 336 ng/g
  concentration at 24 h: 435 ng/g
[1]; [13]
  Cmax: 170 ng/g
  half-life: 135 h
[1]; [14]
  Cmax: 1120 ng/g
  half-life: 119 h
[1]; liver
  Cmax: 1010 ng/g
  half-life: 210 h
[1]; ovaries
  Cmax: 270 ng/g
  half-life: 247 h
[1]; whole body
  Cmax: 900 ng/g
  half-life: 134 h
zebrafish
  Pbb (brain to blood partition coefficient): 0.42
Estrogen receptor (ER)
  pEC50: 6.68

From paper PMC9301920, “Physiologically Based Toxicokinetic Modeling of Bisphenols in Zebrafish (Danio rerio) Accounting for Variations in Metabolic Rates, Brain Distribution, and Liver Accumulation” (Environmental Science & Technology, 2022)
